In patent publication EP1081131A1 (priority 1998, dated 1999):

Assays:
[1] = Acute toxicity on mice (per os); conditions: mouse, in vivo, white mice, per os in 0.5% solution of starch for 5 days; for LD50 at 5 days: oral; for LD50: po
Description: A study of acute toxicity was carried out according to a standard method on white mice. The animals received the preparation per os in a 0.5% solution of starch for 5 days.

[2] = Carrying of cations from one aqueous phase to another through a layer of nonpolar organic solvent (lipophil membrane); assay type: physicochemical
Description: Purification of the prepared compounds is controlled by the TLC method. The meanings of Rf of the claimed compounds were determined using "Sorbfil" plates (Silicagel CTX-1A, UV) (Russia) or "Silufol- UV" plates (Czechoslovakia). The composition and structure of the new compounds were confirmed by element analysis (C,H,N,O analyzer of the Karlo Erba firm) and also IR (Specord-UV-.751R) and PMR spectroscopy (Tesla BS-597A, 100 MHz). An UZDN-2T ultrasound disperser at a frequency of 22 kHz was used to carry out the reaction with ultrasound action. The cation-carrying properties of the claimed compounds were studied in accordance with a generally accepted method, which consists of studying the carrying of a cation from one aqueous phase to another aqueous phase through a layer of a nonpolar organic solvent.

M. bovis = assay type: cell-based; conditions: Typical strain M. bovis
H37Rv = assay: Antimycobacterial activity in vitro, vertical diffusion on dense nutrient; assay type: cell-based, mycobacteria; conditions: Typical strain H37Rv
M.fortuirum = assay: as above; assay type: cell-based; conditions: Atypical strain M.fortuirum
M. avium = assay: as above; assay type: cell-based; conditions: Atypical strain M. avium
M. smegmatis = assay: as above; assay type: cell-based; conditions: Atypical strain M. smegmatis
E. coli = assay: Antibacterial activity in vitro, preparation in a cavity of nutrient agar; assay type: cell-based
Description: (§1) The antibacterial activity of the claimed compounds was studied with the method of seeding solutions of the preparation in a cavity. The test-microbe was put in a Petri dish containing a simple nutrient agar. The preparation in an amount of 0.02 ml in necessary concentrations was put in a cavity located in the middle of the Petri dish. The results were taken after 24-hour incubation in a thermostat at 37°C by determination of the zone of delay of growth of the microorganisms along the edges of the cavity.

Lactobacteria = assay: as above; assay type: cell-based; conditions: Table 7
Description: as §1

S. epidermides = assay: as above; assay type: cell-based; conditions: Table 7
Description: as §1

S. aureus = assay: as above; assay type: cell-based; conditions: Table 6
Description: as §1

Candida Albicans = assay: as above; assay type: cell-based; conditions: Table 6
Description: as §1

P. vulgaris = assay: as above; assay type: cell-based; conditions: Table 6
Description: as §1

[3] = tested on: Sensitive to streptomycin, rifamycin and isoniazid; assay: Bacteriostatic activity on patient strains (Table 4); assay type: cell-based, mycobacteria of tuberculosis; conditions: taken from patients, Central SRI of Tuberculosis RAMS 1997
strain H37Rv = assay: Therapeutic action on infected guinea pigs; assay type: in vivo; conditions: for Average change in weight of pigs during test / Weight of lungs / Weight of spleen: 21 mg/kg (isoniazid equivalent dose), 5 times a week for 60 days

Row | Molecule | Antimycobacterial activity of claimed preparations in tests In vitro (H37Rv) | Antimycobacterial activity of claimed preparations in tests In vitro (M.fortuirum) | Antimycobacterial activity of claimed preparations in tests In vitro (M. avium) | Inhibiting level (E. coli; Table 7) | Inhibiting level (Lactobacteria) | Inhibiting level (S. epidermides) | also measured
1 | O=Cc1ccccc1OCCOCCOc1ccccc1C=O | – | – | – | – | – | – | LD50 at 5 days [1]: > 2000 mg/kg
2 | 1,5-Bis(2-phenyl hydrazonomethyl phenoxy)-3-oxapentane | – | – | – | – | – | – | Speed of carrying ([2]; Cation of metal Cu): 2.0 mol h^-1 10^-7; Speed of carrying ([2]; Cation of metal Fe): 60.0 mol h^-1 10^-7; Speed of carrying ([2]; Cation of metal K): 34.5 mol h^-1 10^-7; Speed of carrying ([2]; Cation of metal Na): 28.7 mol h^-1 10^-7
3 | O=Cc1ccc(Cl)cc1OCCOc1cc(Cl)ccc1C=O [1,2-Bis(2-formyl-5-chlorphenoxy)-ethane] | 0.4 µg/mL | 25.0 µg/mL | 25.0 µg/mL | – | – | – | Antimycobacterial activity of claimed preparations in tests In vitro (M. bovis): 0.4 µg/mL; Antimycobacterial activity of claimed preparations in tests In vitro (M. smegmatis): 6.3 to 12.5 µg/mL
4 | COc1cc(C=NNC(=O)c2ccccc2)ccc1OCCOc1ccc(C=NNC(=O)c2ccccc2)cc1OC [1,2-Bis(2-methoxy-4-benzoyl hydrazonomethylphenoxy)-ethane] | – | – | – | >50 µg/mL | >50 µg/mL | >50 µg/mL | –
5 | O=C(NN=Cc1c(OCCOc2ccc3ccccc3c2C=NNC(=O)c2ccccc2)ccc2ccccc12)c1ccccc1 [1,2-Bis[2(benzoyl hydrazonomethylnaphthoxy-2)]-ethane] | – | – | – | >50 µg/mL | >50 µg/mL | >50 µg/mL | –
6 | O=C(NN=Cc1ccccc1OCCOCCOc1ccccc1C=NNC(=O)c1ccccc1)c1ccccc1 [1,5-Bis(2-benzoyl hydrazonomethylphenoxy)-3-oxapentane] | – | – | – | – | – | – | LD50 [1]: > 1000 mg/kg
7 | O=C(NN=Cc1ccccc1OCCOCCOc1ccccc1C=NNC(=O)c1ccncc1)c1ccncc1 [1,5-Bis(2-isonicotinoyl hydrazonomethylphenoxy)-3-oxapentane] | 0.01 µg/mL | 12.5 µg/mL | 25.0 µg/mL | – | – | – | Antimycobacterial activity of claimed preparations in tests In vitro (M. bovis): 0.01 µg/mL; Inhibiting level (S. aureus): >500 µg/mL; Inhibiting level (E. coli; Table 6): >500 µg/mL; Inhibiting level (Candida Albicans): >500 µg/mL; Inhibiting level (P. vulgaris): >500 µg/mL; Antimycobacterial activity of claimed preparations in tests In vitro (M. smegmatis): 12.5 µg/mL; Inhibiting level [3]: 0.58 µg/mL
8 | O=Cc1ccccc1OCCOc1ccccc1C=O [1,8-Bis(2-formylphenoxy)-ethane] | – | – | – | >200 µg/mL | >200 µg/mL | >200 µg/mL | –
9 | O=C(NN=Cc1ccccc1OCCOCCOCCOc1ccccc1C=NNC(=O)c1ccncc1)c1ccncc1 [1,8-bis(2-isonicotinoyl hydrazonomethylphenoxy)-3,6-dioxaoctane] | 0.05 µg/mL | 12.5 µg/mL | 25.0 µg/mL | – | – | – | LD50 [1]: > 2000 mg/kg; Inhibiting level (S. aureus): >500 µg/mL; Inhibiting level (E. coli; Table 6): >500 µg/mL; Inhibiting level (Candida Albicans): >500 µg/mL; Inhibiting level (P. vulgaris): >500 µg/mL; Average change in weight of pigs during test (strain H37Rv): 148.80 ± 29.40 g; Weight of lungs (strain H37Rv): 4.90 ± 0.90 g; Weight of spleen (strain H37Rv): 8.98 ± 0.15 g; Antimycobacterial activity of claimed preparations in tests In vitro (M. smegmatis): 12.5 µg/mL
10 | O=C(NN=Cc1ccccc1OCCCCOCCCCOc1ccccc1C=NNC(=O)c1cccnc1)c1cccnc1 [1,9-Bis(2-nicotinoyl hydrazonomethylphenoxy)-5-oxanonon] | – | – | – | >100 µg/mL | >100 µg/mL | >100 µg/mL | –
11 | O=C(NN=Cc1ccccc1OCCOCCOCCOCCOc1ccccc1C=NNC(=O)c1ccncc1)c1ccncc1 [1.11-Bis(2-isonicotinoyl hydrazonomethylphenoxy)-3,6,9-trioxaundecane] | – | – | – | >50 µg/mL | >50 µg/mL | >50 µg/mL | –
12 | C=CCSc1nc2ccc(NC(=O)c3ccccc3Cl)cc2s1 [Compound formula (II), 2-(allylthio)-6-(2-chlorobenzoylamino)benzothiazole, reference compound] | 10.0 µg/mL | 10.0 µg/mL | 25.0 µg/mL | – | – | – | –
13 | NNC(=O)c1ccncc1 [Isoniazid, hydrazide of isonicotinic acid, reference compound] | 0.05 µg/mL | 50.0 µg/mL | 50.0 µg/mL | – | – | – | LD50 at 5 days [1]: 363 mg/kg; Antimycobacterial activity of claimed preparations in tests In vitro (M. bovis): 0.05 µg/mL; Average change in weight of pigs during test (strain H37Rv): 180.60 ± 18.80 g; Weight of lungs (strain H37Rv): 4.49 ± 0.80 g; Weight of spleen (strain H37Rv): 9.34 ± 0.30 g; tuberculosis changes after the end of the course of treatment (strain H37Rv; after 60 days of treatment): detected as morphological, not as bacteriological; Antimycobacterial activity of claimed preparations in tests In vitro (M. smegmatis): 50.0 µg/mL; Inhibiting level [3]: 0.29 µg/mL
14 | O=C(NN=Cc1cccc(OCCOCCOCCOc2cccc(C=NNC(=O)c3cccnc3)c2)c1)c1cccnc1.[Ni] [[1,8-Bis(3-nicotinoyl hydrazonomethyl phenoxy)-3,6-dioxaoctanejnickel(II)] | – | – | – | >50 µg/mL | >50 µg/mL | >50 µg/mL | –
